Test results as given in US20250188030A1, “Biphenyl and Phenylpyridine Compounds” (Pfizer Inc., priority 2023, published 2025).
Where two headings read alike, the source gives them in different places.

What was measured:
H3K9AC (HT1080 cells) = assay: H3K9AC Sandwich ELISA Assay in HT1080 cells (KAT2A primary cell-based screening assay); parameters: species or system Human
Outline: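 HT1080 fibrosarcoma cells seeded 16 h, then treated 24 h at 37 °C with 10-point 1:3 compound dilutions (top 10 µM final, 0.1% DMSO). Acid lysates neutralized with butyrate/PMSF; H3K9ac measured by total-H3-capture sandwich ELISA with luminescent HRP readout, IC50 by four-parameter fit.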

MM.1S cells = assay: MM1.S 10 Day Proliferation Assay (CellTiter-Glo); format: cell-based, Human
Outline: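 MM.1S cells, 500/well in ultra-low-attachment plates, were pre-incubated 16 h, then exposed to a 10-point 1:3 dilution series (top 10 μM final, 0.1% DMSO) for 10 days at 37 °C, with compound-containing medium refreshed at day 5. Viability was read by CellTiter-Glo luminescence; IC50 came from four-parameter fit.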

KAT2A = KAT2A (Homo sapiens (Human), UniProt Q92830); assay: KAT2A acetyltransferase biochemical assay (RapidFire mass spectrometry, AcCoA to CoA)
Chain of KAT2A (Q92830 whole entry): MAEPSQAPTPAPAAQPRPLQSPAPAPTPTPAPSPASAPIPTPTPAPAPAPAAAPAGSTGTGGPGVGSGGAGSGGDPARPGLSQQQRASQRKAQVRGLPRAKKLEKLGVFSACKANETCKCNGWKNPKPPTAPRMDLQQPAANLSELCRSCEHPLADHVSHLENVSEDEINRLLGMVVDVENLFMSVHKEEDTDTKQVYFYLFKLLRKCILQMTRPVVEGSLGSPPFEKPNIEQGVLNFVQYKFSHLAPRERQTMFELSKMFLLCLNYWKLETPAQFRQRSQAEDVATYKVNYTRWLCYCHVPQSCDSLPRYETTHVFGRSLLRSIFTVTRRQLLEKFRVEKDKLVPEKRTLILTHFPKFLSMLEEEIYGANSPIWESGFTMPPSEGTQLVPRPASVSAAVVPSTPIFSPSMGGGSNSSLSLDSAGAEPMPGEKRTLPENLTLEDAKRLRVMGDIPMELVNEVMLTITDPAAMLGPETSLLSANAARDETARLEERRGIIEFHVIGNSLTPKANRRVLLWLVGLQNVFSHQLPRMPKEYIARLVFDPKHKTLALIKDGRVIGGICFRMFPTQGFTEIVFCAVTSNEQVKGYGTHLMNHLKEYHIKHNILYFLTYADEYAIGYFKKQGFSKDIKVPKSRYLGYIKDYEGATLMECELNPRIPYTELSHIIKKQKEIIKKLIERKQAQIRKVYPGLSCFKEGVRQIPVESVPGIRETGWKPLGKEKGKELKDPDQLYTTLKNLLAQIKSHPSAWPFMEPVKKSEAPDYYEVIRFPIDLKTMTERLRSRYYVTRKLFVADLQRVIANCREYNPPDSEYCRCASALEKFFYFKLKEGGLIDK
Protocol: • A) Compound preparation • 1) Prepare 10 mM stock solutions in 100% DMSO from solid material. • 2) Serial dilute 10 mM, 1 mM, 0.1 or 0.01 mM compound stocks 3-fold in 100% DMSO for 11-point dose response. • B) Reagent preparation • 1) Prepare 1×assay buffer containing 40 mM bis tris propane pH 8.0, 10 mM NaCl, 0.5 mM EDTA, and 0.002% Tween-20. • 2) Dilute Histone peptide (CPC Scientific) and KAT enzyme together in assay buffer to 1.25×. • 3) Dilute AcCoA (Sigma) in assay buffer to 5×. • C) Enzyme reaction • 1) Final reaction conditions for each KAT assay in a 100ul assay reaction volume: • i) KAT2A 0.5 nM, 1 uM AcCoA, 5 uM H3 1-21 peptide, 90-minute reaction • ii) KAT2B 0.5 nM, 1 uM AcCoA, 5 uM H3 1-21 peptide, 90-minute reaction • 2) Add 2 ul of diluted compound series to the assay plate (96-well round-bottom polypropylene plates) or 2 ul of DMSO for control wells. • 3) Add 11 μL of 10% formic acid to 100% effect (HPE) control wells. • 4) Add 80 ul of 1.25× Histone peptide/KAT mix to the assay plate via Multidrop Combi (ThermoFisher). Incubate 15 min at room temperature. • 5) Add 20 ul of 5× AcCoA to the assay plate via Multidrop Combi. • 6) Stop the reaction after the indicated time with the addition of 11 ul of 10% formic acid via Multidrop Combi. • 7) Each reaction was analyzed using Rapid Fire mass spectrometry platform.
KAT enzymes were expressed using a baculovirus expression system and purified at Pfizer, La Jolla. […] Acetyl coenzyme A was purchased from Sigma-Aldrich (St. Louis, MO). All other biochemical reagents were purchased from Sigma-Aldrich or ThermoFisher Scientific (Waltham, MA).
KAT assays were performed at room temperature in assay buffer containing 1 μM AcCoA, 5 μM histone peptide, 40 mM bis tris propane pH 8.0, 10 mM NaCl, 0.5 mM EDTA 0.002% Tween-20. 80 ul of 1.25× Histone peptide/enzyme mix was added to a 96-well round-bottom polypropylene assay plate containing 2 ul of serially diluted test compound in 100% dimethyl sulfoxide (DMSO). To start the reaction, 20 ul of 5× AcCoA solution was added to the assay plate. KAT assays were terminated after 90 minutes with the addition of 11 ul of 10% formic acid. All assays used histone H3 (1-21) peptide. The final enzyme concentration for each KAT was as follows: KAT2A, 0.5 nM; KAT2B, 0.5 nM. […] Each reaction was analyzed using Rapid Fire mass spectrometry platform. This methodology leverages an Agilent 6495 triple quadrupole (QQQ) mass spectrometer coupled to a RapidFire model 365 to specifically capture and measure KAT2 acetyltransferase activity, converting AcCoA (substrate) to CoA (product).
Area under the curve (AUC) for both substrate and product peaks was determined for KAT2 at M.W. 809.6 [Substrate+H]+ and 767.3 [Product+H]+ with a +/−1 Da tolerance, respectively. Acetyltransferase activity (% of DMSO control) was calculated by: ((AUCProduct/AUCsubstrate)-AUCHPE)/(AUCZPE-AUCHPE))*100. Ki values were determined by fitting the % acetyltransferase activity at each inhibitor concentration to the Morrison equation for tightbinding competitive inhibitors using Pfizer proprietary curve fitting software.
To determine the inhibition of KAT enzymatic activity by test compounds, assay reactions were conducted in a volume of 100 μL in 96-well round-bottom polypropylene assay plate. The reactions were performed in assay buffer (40 mM bis tris propane, pH 8, 10 mM NaCl, 0.5 mM EDTA, 0.002% Tween-20).

KAT2B = KAT2B (Homo sapiens (Human), UniProt Q92831); assay: KAT2B acetyltransferase biochemical assay (RapidFire mass spectrometry, AcCoA to CoA)
Chain of KAT2B (Q92831 2-832): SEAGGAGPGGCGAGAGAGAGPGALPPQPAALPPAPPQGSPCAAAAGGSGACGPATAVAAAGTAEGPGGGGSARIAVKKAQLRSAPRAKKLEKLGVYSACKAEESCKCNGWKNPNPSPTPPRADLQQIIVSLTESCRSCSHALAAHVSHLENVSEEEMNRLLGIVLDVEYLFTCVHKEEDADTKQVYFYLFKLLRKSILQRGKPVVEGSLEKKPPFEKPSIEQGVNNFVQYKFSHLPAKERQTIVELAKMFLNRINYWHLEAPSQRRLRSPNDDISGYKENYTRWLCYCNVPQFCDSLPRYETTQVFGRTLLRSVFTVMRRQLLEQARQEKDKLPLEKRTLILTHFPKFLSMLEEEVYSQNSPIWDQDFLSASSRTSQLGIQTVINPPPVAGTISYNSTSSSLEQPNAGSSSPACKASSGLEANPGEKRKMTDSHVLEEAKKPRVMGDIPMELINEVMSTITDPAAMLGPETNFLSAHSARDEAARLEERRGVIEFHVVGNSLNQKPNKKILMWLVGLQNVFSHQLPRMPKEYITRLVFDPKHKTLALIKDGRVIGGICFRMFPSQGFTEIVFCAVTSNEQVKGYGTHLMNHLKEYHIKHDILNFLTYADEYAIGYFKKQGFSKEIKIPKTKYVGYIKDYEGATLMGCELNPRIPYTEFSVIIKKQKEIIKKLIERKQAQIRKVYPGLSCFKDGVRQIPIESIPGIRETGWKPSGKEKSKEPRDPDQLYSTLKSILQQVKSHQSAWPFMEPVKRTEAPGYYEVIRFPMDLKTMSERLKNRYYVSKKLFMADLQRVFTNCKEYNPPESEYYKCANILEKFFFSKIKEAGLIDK

[1] = Homo sapiens, HT-1080, H3K9AC sandwich ELISA
[2] = read-out: KAT2A Ki at 1 μM AcCoA, 5 μM H3 1-21 peptide, 0.5 nM KAT2A, 90-minute reaction
[3] = read-out: KAT2B Ki at 1 μM AcCoA, 1 μM AcCoA, 5 μM H3 1-21 peptide, 0.5 nM KAT2B, 90-minute reaction
[4] = KAT2A Ki at 1 μM AcCoA, 5 μM H3 1-21 peptide, 0.5 nM KAT2A, 90-minute reaction

SMILES	IC50 (H3K9AC (HT1080 cells); [1])	IC50 (MM.1S cells; Homo sapiens, MM1.S, 240 h)	Ki (KAT2A; [2])	Ki (KAT2B; [3])	IC50 (H3K9AC (HT1080 cells); H3K9AC sandwich ELISA)	Ki (KAT2A; [4])	Ki (KAT2B)	IC50 (MM.1S cells)
CN1CC(C)(C)C[C@H]1C(=O)N[C@@H]1CC[C@@H](Oc2cccc(C(=O)O)c2-c2cccc(F)c2C2CCC2)C1 (atropisomer, axis not shown) [Example H3, (1ψ)-2′-cyclobutyl-3′-fluoro-6-({(1R,3R)-3-[(1,4,4-trimethyl-L-prolyl)amino]cyclopentyl}oxy)[1,1′-biphenyl]-2-carboxylic acid]	57.2 nM	219 nM	18.3 nM	32.9 nM				
CN1CC(C)(C)C[C@H]1C(=O)N[C@@H]1CC[C@@H](Oc2cccc(CC(=O)O)c2-c2ccccc2C2CCC2)C1 (atropisomer, axis not shown) [Example H6, [(1ψ)-2′-cyclobutyl-6-({(1R,3R)-3-[(1,4,4-trimethyl-L-prolyl)amino]cyclopentyl}oxy)[1,1′-biphenyl]-2-yl]acetic acid]		679 nM		63.6 nM	84.2 nM			
CC1(C)C[C@H](C(=O)N[C@@H]2CC[C@@H](Oc3cccc(C(=O)O)c3-c3cccc(F)c3C3CCC3)C2)CN1 (atropisomer, axis not shown) [Example H9, (1ψ)-2′-cyclobutyl-6-{[(1R,3R)-3-{[(3ξ)-5,5-dimethylpyrrolidine-3-carbonyl]amino}cyclopentyl]oxy}-3′-fluoro[1,1′-biphenyl]-2-carboxylic acid]	90 nM		33 nM	115 nM				
CN1CC(C)(C)C[C@H]1C(=O)N[C@@H]1CC[C@@H](Oc2cccc(C(=O)NS(=O)(=O)N3CC(F)C3)c2-c2cccc(F)c2C2CCC2)C1 (atropisomer, axis not shown) [Example I12, N-[(1R,3R)-3-({(1ψ)-2′-cyclobutyl-3′-fluoro-6-[(3-fluoroazetidine-1-sulfonyl)carbamoyl][1,1′-biphenyl]-2-yl}oxy)cyclopentyl]-1,4,4-trimethyl-L-prolinamide]	6.43 nM	123 nM	20.6 nM	20.3 nM				
CC(C)(C(=O)O)c1ccc(O[C@@H]2CC[C@@H](NC(=O)[C@]3(F)CNC4(CCCC4)C3)C2)c(-c2cccc(F)c2C2CCC2)c1 (single isomer, unassigned) [Example A6]	7.67 nM	92.4 nM	0.54 nM	1.21 nM				
CC1(C)CNC[C@](F)(C(=O)N[C@@H]2CC[C@@H](Oc3ccc(C(C)(C)C(=O)O)cc3-c3cccc(F)c3C3CCC3)C2)C1 (single isomer, unassigned) [Example A16]		144 nM	1.39 nM	2.43 nM	13.4 nM			
CC1(C)CNC[C@](F)(C(=O)N[C@@H]2CC[C@@H](Oc3ccc(CC(=O)O)cc3-c3cccc(F)c3C3CCC3)C2)C1 (single isomer, unassigned) [Example A23]	6.36 nM	60 nM	0.57 nM	2.85 nM				
CCS(=O)(=O)NC(=O)C(C)(C)c1ccc(O[C@@H]2CC[C@@H](NC(=O)C3(F)CNC4(CCC4)C3)C2)c(-c2cccc(F)c2C2CCC2)c1 (single isomer, unassigned) [Example B2]		7.51 nM			3.14 nM	0.13 nM	0.13 nM	
CC(C)S(=O)(=O)NC(=O)C(C)(C)c1ccc(O[C@@H]2CC[C@@H](NC(=O)[C@]3(F)CNC4(CCC4)C3)C2)c(-c2cccc(F)c2C2CCC2)c1 (single isomer, unassigned) [Example B4]	3.12 nM	8.38 nM	0.14 nM	0.15 nM				
CCS(=O)(=O)NC(=O)C(C)(C)c1ccc(O[C@@H]2CC[C@@H](NC(=O)[C@@]3(F)CNC(C)(C)C3)C2)c(-c2cccc(F)c2C2CCC2)c1 (single isomer, unassigned) [Example B13]			0.14 nM	0.35 nM	1.96 nM			38.8 nM
CCS(=O)(=O)NC(=O)C(C)(C)c1ccc(O[C@@H]2CC[C@@H](NC(=O)[C@@]3(F)CNC4(CCCC4)C3)C2)c(-c2cccc(F)c2C2CCC2)c1 (single isomer, unassigned) [Example B20]	0.93 nM	1.76 nM	0.05 nM	0.06 nM				
CC1(C)CNCC(F)(C(=O)N[C@@H]2CC[C@@H](Oc3ccc(C(C)(C)C(=O)NS(=O)(=O)C4CC4)cc3-c3cccc(F)c3C3CCC3)C2)C1 (single isomer, unassigned) [Example B28]	2.7 nM	5 nM	0.14 nM	0.19 nM				
CC(C)(C(=O)NS(C)(=O)=O)c1ccc(O[C@@H]2CC[C@@H](NC(=O)[C@@]3(F)CNC4(CCCC4)C3)C2)c(-c2cccc(F)c2C2CCC2)c1 (single isomer, unassigned) [Example C4]			0.26 nM	0.14 nM	1.25 nM			5.49 nM
CC1(C)C[C@@](F)(C(=O)N[C@@H]2CC[C@@H](Oc3ccc(C(C)(C)C(=O)NS(C)(=O)=O)cc3-c3cccc(F)c3C3CCC3)C2)CN1 (single isomer, unassigned) [Example C5]	10.2 nM	12.6 nM	0.17 nM	0.18 nM				
CC1(C)C[C@](F)(C(=O)N[C@@H]2CC[C@@H](Oc3ccc(C(C)(C)C(=O)NS(C)(=O)=O)cc3-c3cccc(F)c3C3CCC3)C2)CN1 (single isomer, unassigned) [Example C6]	89.7 nM		2.75 nM	14.8 nM				
CC1(C)C[C@@](F)(C(=O)N[C@@H]2CC[C@@H](Oc3ccc(C(C)(C)C(=O)NS(=O)(=O)N4CCC4)cc3-c3cccc(F)c3C3CCC3)C2)CN1 (single isomer, unassigned) [Example C7]	5.79 nM	17.5 nM	0.07 nM	0.04 nM				
CN1CC2(CCOCC2)C[C@H]1C(=O)N[C@@H]1CC[C@@H](Oc2ccc(C(=O)O)cc2-c2ccccc2C2CCC2)C1 (single isomer, unassigned) [Example D2]	30.6 nM					70.3 nM	46.8 nM	
CCn1cc(-c2ccc(O[C@@H]3CC[C@@H](NC(=O)[C@@]4(F)CNC5(CCC5)C4)C3)c(-c3cccc(F)c3C3CCC3)c2)c(C(=O)O)n1 (single isomer, unassigned) [Example J13]	10.2 nM		0.14 nM	0.62 nM				
CC(C)c1ccccc1-c1cc(C(=O)O)ccc1O[C@@H]1CC[C@@H](NC(=O)[C@@H]2CC(C)(C)CN2C)C1 [Example D5, 2′-(propan-2-yl)-6-({(1R,3R)-3-[(1,4,4-trimethyl-L-prolyl)amino]cyclopentyl}oxy)[1,1′-biphenyl]-3-carboxylic acid]	30.4 nM		12.8 nM	58.8 nM				
CN1CC(C)(C)C[C@H]1C(=O)N[C@H]1C[C@H](COc2ccc(C(C)(C)C(=O)O)cc2-c2cccc(F)c2C2CCC2)C1 [Example F2, 2-[2′-cyclobutyl-3′-fluoro-6-({(1S,3r)-3-[(1,4,4-trimethyl-L-prolyl)amino]cyclobutyl}methoxy)[1,1′-biphenyl]-3-yl]-2-methylpropanoic acid]	71.2 nM	625 nM				9.11 nM		
CN1CC(C)(C)C[C@H]1C(=O)N[C@H]1C[C@H](COc2ccc(C(C)(C)C(=O)NS(C)(=O)=O)cc2-c2cccc(F)c2C2CCC2)C1 [Example G2, N-[(1r,3S)-3-{[(2′-cyclobutyl-3′-fluoro-5-{1-[(methanesulfonyl)amino]-2-methyl-1-oxopropan-2-yl}[1,1′-biphenyl]-2-yl)oxy]methyl}cyclobutyl]-1,4,4-trimethyl-L-prolinamide]	9.38 nM	56.9 nM				1.68 nM		
Cc1cc(NS(C)(=O)=O)n(-c2ccc(O[C@@H]3CC[C@@H](NC(=O)[C@@H]4CC(C)(C)CN4C)C3)c(-c3cccc(F)c3C3CCC3)c2)n1 [Example L1, N-[(1R,3R)-3-({2′-cyclobutyl-3′-fluoro-5-[5-(methanesulfonamido)-3-methyl-1H-pyrazol-1-yl][1,1′-biphenyl]-2-yl}oxy)cyclopentyl]-1,4,4-trimethyl-L-prolinamide]	7.01 nM	56 nM	0.16 nM					
